{
  "source": "patent US9623262B2",
  "about": "“Methods and systems for determining the distribution of radiation dose and response” (priority 2013, dated 2017)",
  "key": {"[1]": {"system": "V79 cells", "assay": "Clonogenic survival assay after single-agent treatment", "protocol": "The surviving fraction SF of cells exposed to the agent was assessed with a clonogenic survival assay and plotted as a function of several different variables including extracellular concentration, <I>net, absorbed dose (Gy), and mean cellular activity (mBq/cell). […] Analogous to the cellular activity and absorbed dose required to achieve 37% survival, a37 and D37, the net mean lethal fluorescence intensity of the drug required to achieve 37% survival, <I>net,37, can be defined similarly and obtained from plots of SF versus <I>net.\nA is the intracellular activity of ^210Po-citrate, absorbed dose to the cell nucleus, or drug concentration. Least squares fits of the survival data to this function were performed. The variable b is a fitted parameter.\nCells grown in 225-cm^2 flasks were trypsinized (0.25% trypsin, Gibco, catalog no. 25200-056), and MEMB was added to obtain 2×10^6 cells/mL. Aliquots of 1 mL were placed in Falcon 17×100 mm polypropylene tubes (BD, catalog no. 352018) and placed on a rocker-roller (Thermo Fisher, Fair Lawn, N.J.) for 3 hours at 37° C. with 5% CO2 and 95% air. After this conditioning period, cells were treated with drug or radiochemical. Cell cultures were exposed to radiochemical and drugs for 0.5 and 2.5 h, respectively.\nOne milliliter of MEMB containing ^210Po-citrate was added to the 1 mL of conditioned V79 cultures (2×10^6 cells/mL), to arrive at a concentration of 0-250 kBq/mL (pH 6.9-7.0). After incubating for 30 min, the cells were washed 2× with MEMB, resuspended in 2 mL of MEMB, and incubated on a rocker-roller for 2.5 h to simulate concomitant drug exposure. The cells were resuspended in a 5 mL of MEMB, passed 5× through a needle, and counted with a Beckman Coulter Model Z2 (Brea, Calif.). Aliquots (500 μL) of the cell suspension were transferred to vials, mixed with 5 mL Ecolume (MP Biomedical, Solon, Ohio, catalog no. 882470), and counted with a Beckman Coulter LS6500, and the mean activity per cell was determined (efficiency, 50% as per prior studies). Aliquots of about 5×10^5 cells were counted in triplicate for ^210Po activity and the cpm ranged from 10^3-10^5. The triplicate measurements kept statistical variations to a minimum. Each sample was serially diluted and plated in Falcon 60×15 mm tissue culture dishes for colony formation. Cultures were incubated for 7 days, and the colonies were fixed in 95% ethanol, stained with 0.01% Amido Black, washed in tap-water, air-dried, and counted.\nAfter conditioning, the cell cultures were treated with daunomycin (Sigma, catalog no. D8809) or doxorubicin (Sigma, catalog no. 44583) to a final concentration of 0-10 μmol/L in MEMB. The tubes were returned to the rocker-roller for 2.5 h. The cells were then processed for colony formation as described above."}, "[2]": {"system": "V79 cells", "assay": "Clonogenic survival after combined treatment with 210Po-citrate and drug (cocktails)", "type": "cell-based, Chinese hamster", "conditions": "for dose dependence of the enhancement of α-particle radiotoxicity: 0.63 μM daunomycin or 2.50 μM doxorubicin with graded 210Po-citrate; for effect of drug on radiotoxicity of 210Po-citrate: concomitant treatment, survival corrected for drug toxicity", "description": "To evaluate cytotoxicity of combined treatment of V79 cells with ^210Po-citrate and daunomycin, or ^210Po-citrate and doxorubicin, the surviving fraction of clonogens was plotted as a function of mean cellular uptake of ^210Po (FIG. 9) and as a function of mean absorbed dose to the cell nucleus. When cells were only treated with ^210Po-citrate, the survival curve can be described by a 1-component exponential function. When cells were concomitantly treated with a single drug concentration and varying amounts of ^210Po-citrate, the dose-response curves followed a 2-component exponential function. The data corresponding to the combined treatments were then corrected for drug toxicity, by dividing the surviving fraction for each datum point by the surviving fraction for drug alone (SF=0.10), and replotted in FIG. 9. Both of the corrected cell survival curves emerged below those obtained for ^210Po-citrate alone."}},
  "data": [
    {"compound": "COc1cccc2c1C(=O)c1c(O)c3c(c(O)c1C2=O)C[C@@](O)(C(C)=O)C[C@@H]3O[C@H]1C[C@H](N)[C@H](O)[C@H](C)O1", "note": "[daunomycin]", "values": [
      {"measurement": "relative cytotoxicity based on extracellular drug concentration", "setting": "[1]; V79 cell cultures", "result": "more cytotoxic than doxorubicin"},
      {"measurement": "lethality of daunomycin relative to doxorubicin", "setting": "[1]; low extracellular concentrations, V79 cells", "result": "~5", "unit": "×"},
      {"measurement": "dose dependence of the enhancement of α-particle radiotoxicity", "setting": "[2]", "result": "independent of radiation absorbed dose beyond about 0.5 Gy"},
      {"measurement": "effect of drug on radiotoxicity of 210Po-citrate", "setting": "[2]", "result": "enhance the radiotoxicity of α-particles"}
    ]},
    {"compound": "COc1cccc2c1C(=O)c1c(O)c3c(c(O)c1C2=O)C[C@@](O)(C(=O)CO)C[C@@H]3O[C@H]1C[C@H](N)[C@H](O)[C@H](C)O1", "note": "[doxorubicin]", "values": [
      {"measurement": "dose dependence of the enhancement of α-particle radiotoxicity", "setting": "[2]", "result": "dose-dependent increase"},
      {"measurement": "effect of drug on radiotoxicity of 210Po-citrate", "setting": "[2]", "result": "enhance the radiotoxicity of α-particles"}
    ]},
    {"compound": "^210Po-citrate", "values": [
      {"measurement": "cellular uptake of 210Po at the mean lethal dose", "setting": "[1]; 37% survival", "result": 0.21, "unit": "mBq/cell"},
      {"measurement": "atoms of 210Po per cell at the mean lethal dose", "setting": "[1]; corresponds to 0.21 mBq/cell", "result": "about 3600 atoms"}
    ]}
  ]
}
